Results taken from ChEMBL document CHEMBL1909294, “Translating clinical findings into knowledge in drug safety evaluation--drug induced liver injury prediction system (DILIps)” (PLoS Comput Biol, 2011).

Legend:
[1] = tested on: Hepatotoxicity;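 on HepSE cholecystitis: Cholecystitis-related hepatic side effect score drawn from the DILIps (drug-induced liver injury prediction) training data set; call rule not given here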;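 on HepSE cirrhosis: cirrhosis hepatic side effect score taken from the DILIps (drug-induced liver injury prediction) training set; call rule not given here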; on HepSE hepatic failure: call rule not given here;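 on HepSE hepatic necrosis: score of hepatic side effects for hepatic necrosis, drawn from the training data of DILIps, a prediction system for drug-induced liver injury; call rule not given here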;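 on HepSE hepatomegaly: hepatic side effect score for hepatomegaly, taken from the training set of the DILIps drug-induced liver injury prediction system; call rule not given here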;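 on HepSE jaundice: Jaundice-related hepatic side-effect score drawn from the training data of the DILIps (drug-induced liver injury prediction system); call rule not given here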;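 on HepSE liver fatty: hepatic side effect score for fatty liver, taken from the DILIps training set for predicting drug-induced liver injury; call rule not given here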
[2] = tested on: Hepatotoxicity; remark: listed apart in the source;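 on HepSE cholecystitis: Cholecystitis-related hepatic side effect score drawn from the DILIps (drug-induced liver injury prediction) training data set; call rule not given here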;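 on HepSE cirrhosis: cirrhosis hepatic side effect score taken from the DILIps (drug-induced liver injury prediction) training set; call rule not given here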; on HepSE hepatic failure: call rule not given here;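 on HepSE hepatic necrosis: score of hepatic side effects for hepatic necrosis, drawn from the training data of DILIps, a prediction system for drug-induced liver injury; call rule not given here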;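 on HepSE hepatomegaly: hepatic side effect score for hepatomegaly, taken from the training set of the DILIps drug-induced liver injury prediction system; call rule not given here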;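 on HepSE jaundice: Jaundice-related hepatic side-effect score drawn from the training data of the DILIps (drug-induced liver injury prediction system); call rule not given here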
[3] = tested on: Hepatotoxicity; remark: listed apart in the source;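 on HepSE cholecystitis: Cholecystitis-related hepatic side effect score drawn from the DILIps (drug-induced liver injury prediction) training data set; call rule not given here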;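 on HepSE cirrhosis: cirrhosis hepatic side effect score taken from the DILIps (drug-induced liver injury prediction) training set; call rule not given here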; on HepSE hepatic failure: call rule not given here;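 on HepSE hepatic necrosis: score of hepatic side effects for hepatic necrosis, drawn from the training data of DILIps, a prediction system for drug-induced liver injury; call rule not given here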;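 on HepSE hepatomegaly: hepatic side effect score for hepatomegaly, taken from the training set of the DILIps drug-induced liver injury prediction system; call rule not given here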;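 on HepSE jaundice: Jaundice-related hepatic side-effect score drawn from the training data of the DILIps (drug-induced liver injury prediction system); call rule not given here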
[4] = tested on: Hepatotoxicity; remark: listed apart in the source;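 on HepSE cholecystitis: Cholecystitis-related hepatic side effect score drawn from the DILIps (drug-induced liver injury prediction) training data set; call rule not given here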;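 on HepSE cirrhosis: cirrhosis hepatic side effect score taken from the DILIps (drug-induced liver injury prediction) training set; call rule not given here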; on HepSE hepatic failure: call rule not given here;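 on HepSE hepatic necrosis: score of hepatic side effects for hepatic necrosis, drawn from the training data of DILIps, a prediction system for drug-induced liver injury; call rule not given here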;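 on HepSE hepatomegaly: hepatic side effect score for hepatomegaly, taken from the training set of the DILIps drug-induced liver injury prediction system; call rule not given here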;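 on HepSE jaundice: Jaundice-related hepatic side-effect score drawn from the training data of the DILIps (drug-induced liver injury prediction system); call rule not given here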
[5] = tested on: Hepatotoxicity; remark: listed apart in the source; on HepSE hepatic failure: call rule not given here
[6] = tested on: Hepatotoxicity; remark: listed apart in the source; on HepSE hepatic failure: call rule not given here
[7] = tested on: Hepatotoxicity; remark: listed apart in the source
[8] = tested on: Hepatotoxicity; remark: listed apart in the source
[9] = tested on: Hepatotoxicity; remark: listed apart in the source
[10] = tested on: Hepatotoxicity; remark: listed apart in the source
[11] = tested on: Hepatotoxicity; remark: listed apart in the source
[12] = tested on: Hepatotoxicity; remark: listed apart in the source
[13] = tested on: Hepatotoxicity; remark: listed apart in the source
[14] = tested on: Hepatotoxicity; remark: listed apart in the source

SMILES | HepSE_hepatic failure [1] | HepSE_cirrhosis [2] | HepSE_hepatomegaly [3] | HepSE_hepatic necrosis [4] | HepSE_bilirubinemia [5] | HepSE_jaundice [6] | HepSE_cholecystitis [7] | HepSE_hepatitis [8] | HepSE_liver fatty [9] | HepSE_cholelithiasis [10] | HepSE_Combined Scores [11] | HepSE_elevated liver function tests [12] | HepSE_liver function tests abnormal [13] | HepSE_liver disease [14] | further results
CC1=C(/C=C/C(C)=C/C=C/C(C)=C/CO)C(C)(C)CCC1 [RETINOL] |  |  |  |  |  |  |  |  |  |  |  |  |  |  | HepSE_hepatic failure ([1]; Liver): 0; HepSE_cirrhosis ([2]; Liver): 0; HepSE_hepatomegaly ([3]; Liver): 0; HepSE_hepatic necrosis ([4]; Liver): 0; HepSE_bilirubinemia ([5]; Liver): 0; HepSE_jaundice ([6]; Liver): 0; HepSE_cholecystitis ([7]; Liver): 0; HepSE_hepatitis ([8]; Liver): 0; HepSE_liver fatty ([9]; Liver): 0; HepSE_cholelithiasis ([10]; Liver): 0; HepSE_Combined Scores ([11]; Liver): 0; HepSE_elevated liver function tests ([12]; Liver): 0; HepSE_liver function tests abnormal ([13]; Liver): 0; HepSE_liver disease ([14]; Liver): 0
CCc1c2c(nc3ccc(OC(=O)N4CCC(N5CCCCC5)CC4)cc13)-c1cc3c(c(=O)n1C2)COC(=O)[C@]3(O)CC [IRINOTECAN] | 0 | 0 | 1 | 0 | 0 | 1 | 0 | 0 | 0 | 0 | 2 | 0 | 0 | 0 | 
CC(=O)NCCCS(=O)(=O)O [ACAMPROSATE] | 0 | 1 | 0 | 0 | 1 | 0 | 1 | 1 | 0 | 0 | 5 | 0 | 1 | 0 | 
CN[C@@H](C)Cc1ccccc1 [METHAMPHETAMINE] | 0 | 0 | 0 | 0 | 0 | 0 | 0 | 0 | 0 | 0 | 0 | 0 | 0 | 0 | 
O=C(O)c1cc(/N=N/c2ccc(S(=O)(=O)Nc3ccccn3)cc2)ccc1O [SULFASALAZINE] | 1 | 1 | 0 | 1 | 0 | 1 | 0 | 1 | 0 | 0 | 7 | 1 | 1 | 0 | 
CC(C)CN(C[C@@H](OP(=O)(O)O)[C@H](Cc1ccccc1)NC(=O)O[C@H]1CCOC1)S(=O)(=O)c1ccc(N)cc1 [FOSAMPRENAVIR] | 0 | 0 | 0 | 0 | 0 | 0 | 0 | 0 | 0 | 0 | 0 | 0 | 0 | 0 | 
CCN1CCN(C(=O)N[C@@H](C(=O)N[C@@H]2C(=O)N3C(C(=O)O)=C(CSc4nnnn4C)CS[C@H]23)c2ccc(O)cc2)C(=O)C1=O [CEFOPERAZONE] | 0 | 0 | 0 | 0 | 0 | 0 | 0 | 1 | 0 | 0 | 2 | 0 | 0 | 1 | 
Cc1nnc(SCC2=C(C(=O)O)N3C(=O)[C@@H](NC(=O)Cn4cnnn4)[C@H]3SC2)s1 [CEFAZOLIN] | 0 | 0 | 0 | 0 | 0 | 0 | 0 | 1 | 0 | 0 | 1 | 0 | 0 | 0 | 
CC(=O)[C@@]1(O)CC[C@H]2[C@@H]3C[C@H](C)C4=CC(=O)C=C[C@]4(C)[C@@]3(F)[C@@H](O)C[C@@]21C [FLUOROMETHOLONE] | 0 | 0 | 0 | 0 | 0 | 0 | 0 | 0 | 0 | 0 | 0 | 0 | 0 | 0 | 
CC(=O)S[C@@H]1CC2=CC(=O)CC[C@]2(C)[C@H]2CC[C@@]3(C)[C@@H](CC[C@@]34CCC(=O)O4)[C@H]12 [SPIRONOLACTONE] | 0 | 0 | 0 | 0 | 0 | 0 | 0 | 0 | 0 | 0 | 0 | 0 | 0 | 0 | 
O=C1CC[C@@]2(O)[C@H]3Cc4ccc(O)c5c4[C@@]2(CCN3CC2CC2)[C@H]1O5 [NALTREXONE] | 0 | 0 | 0 | 0 | 0 | 0 | 0 | 1 | 0 | 1 | 2 | 0 | 0 | 0 | 
CCNC(=O)[C@@H]1CCCN1C(=O)[C@H](CCCNC(=N)N)NC(=O)[C@H](CC(C)C)NC(=O)[C@@H](COC(C)(C)C)NC(=O)[C@H](Cc1ccc(O)cc1)NC(=O)[C@H](CO)NC(=O)[C@H](Cc1c[nH]c2ccccc12)NC(=O)[C@H](Cc1cnc[nH]1)NC(=O)[C@@H]1CCC(=O)N1 [BUSERELIN] | 0 | 0 | 0 | 0 | 0 | 0 | 0 | 0 | 0 | 0 | 0 | 0 | 0 | 0 | 
NC(=O)C[S+]([O-])C(c1ccccc1)c1ccccc1 (centres undefined) [MODAFINIL] | 0 | 0 | 0 | 0 | 0 | 0 | 0 | 0 | 0 | 0 | 0 | 0 | 0 | 0 | 
Clc1ccc(COC(Cn2ccnc2)c2ccc(Cl)cc2Cl)cc1 (centres undefined) [ECONAZOLE] | 0 | 0 | 0 | 0 | 0 | 0 | 0 | 0 | 0 | 0 | 0 | 0 | 0 | 0 | 
Cc1ccccc1N1C(=O)c2cc(S(N)(=O)=O)c(Cl)cc2NC1C (centres undefined) [METOLAZONE] | 0 | 0 | 0 | 0 | 0 | 1 | 0 | 1 | 0 | 0 | 2 | 0 | 0 | 0 | 
CC[C@H]1OC(=O)[C@H](C)[C@@H](O[C@H]2C[C@@](C)(OC)[C@@H](O)[C@H](C)O2)[C@H](C)[C@@H](O[C@@H]2O[C@H](C)C[C@H](N(C)C)[C@H]2O)[C@](C)(OC)C[C@@H](C)C(=O)[C@H](C)[C@@H](O)[C@]1(C)O [CLARITHROMYCIN] | 1 | 0 | 1 | 0 | 0 | 1 | 0 | 1 | 0 | 0 | 4 | 0 | 0 | 0 | 
